Data from patent US12458614B2, “Therapeutic agents for improved mobility and cognitive function and for treating neurodegenerative diseases and lysosomal storage disorders” (priority 2017, dated 2025).

Columns and labels:
Npc1−/− mice = experiment: Observation of coat condition and disease symptoms; type: in vivo, mouse; conditions: Npc1−/− mice treated from weaning
Description: Separate groups of Npc1^-/- and Npc1^+/+ mice were left untreated, as controls.

[1] = tested on: Niemann-Pick A (NPA) patient fibroblasts; experiment: Lysosomal volume via LysoTracker; type: cell-based, human; conditions: 1 mM, 6 days
[2] = tested on: Mucolipidosis Type II (MLII) patient fibroblasts; experiment: Lysosomal volume via LysoTracker; type: cell-based, human; conditions: 1 mM, 6 days
[3] = tested on: patients with Tay-Sachs disease; experiment: Case studies, Tay-Sachs disease (SARA, SCAFI, MoCA); type: in vivo, human
Description: For example, to evaluate overall neurological status, mDRS, a four-domain scale (ambulation, manipulation, language and swallowing), may be applied. Cerebellar function may be evaluated using SARA, an eight-item clinical rating scale (gait, stance, sitting, speech, fine motor function and taxis; range 0-40, where 0 is the best neurological status and 40 the worst), and SCAFI, comprising the 8-m-Walking-Time (8MW; performed by having patients walking twice as quickly as possible from one line to another excluding turning), 9-Hole-Peg-Test (9HPT) and the number of “PATA” repetitions over 10 s. Subjective impairment and quality of life may be evaluated using the EQ-5D-5L questionnaire and VAS. To assess ocular motor function, 3-dimensional videooculography (EyeSeeCam) may be used to measure the peak velocity of saccades, gain of smooth pursuit, peak slow phase velocity of gaze-evoked nystagmus (gaze-holding function), peak slow phase velocity of optokinetic nystagmus, and gain of horizontal vestibulo-ocular reflex. To evaluate the cognitive state, WAIS-R or WISC-IV, and MoCA, assessing different cognitive domains, including attention and concentration, executive functions, memory, language, visuoconstructional skills, conceptual thinking, calculations, and orientation with a maximum of 30 points and a cut-off score of 26, may be used. The skilled person will know how to perform these and other such tests.
The day following this examination, the patient was started on therapy with acetyl-leucine, at a dose of 3 g per day for the first week, followed by a dose of 5 g per day for the second week onwards.
The day of the examination, the patient was started on therapy with acetyl-leucine at a dose of 3 g per day for the first week, followed by a dose of 5 g per day for the second week onwards.
The patient was started on therapy with acetyl-leucine at a dose of 1.5 g per day for the first week, followed by a dose of 3 g per day for the second week onwards.

[4] = tested on: patient with GM1 Gangliosidosis; experiment: Case study, GM1 Gangliosidosis; type: in vivo, human; conditions: after one month, 1.5 g then 3 g per day
Description: For example, to evaluate overall neurological status, mDRS, a four-domain scale (ambulation, manipulation, language and swallowing), may be applied. Cerebellar function may be evaluated using SARA, an eight-item clinical rating scale (gait, stance, sitting, speech, fine motor function and taxis; range 0-40, where 0 is the best neurological status and 40 the worst), and SCAFI, comprising the 8-m-Walking-Time (8MW; performed by having patients walking twice as quickly as possible from one line to another excluding turning), 9-Hole-Peg-Test (9HPT) and the number of “PATA” repetitions over 10 s. Subjective impairment and quality of life may be evaluated using the EQ-5D-5L questionnaire and VAS. To assess ocular motor function, 3-dimensional videooculography (EyeSeeCam) may be used to measure the peak velocity of saccades, gain of smooth pursuit, peak slow phase velocity of gaze-evoked nystagmus (gaze-holding function), peak slow phase velocity of optokinetic nystagmus, and gain of horizontal vestibulo-ocular reflex. To evaluate the cognitive state, WAIS-R or WISC-IV, and MoCA, assessing different cognitive domains, including attention and concentration, executive functions, memory, language, visuoconstructional skills, conceptual thinking, calculations, and orientation with a maximum of 30 points and a cut-off score of 26, may be used. […]

[5] = tested on: patients with ataxia with oculomotor apraxia type 4; experiment: Case study, ataxia with oculomotor apraxia type 4; type: in vivo, human; conditions: AOA4 youngest sibling
Description: In this case study, four patients (male siblings) suffered from, and were later diagnosed with, ataxia with oculomotor apraxia type 4. The older three siblings […], at the time of disease onset. […] The older siblings began treatment with acetyl-leucine […], respectively, and have been on the treatment for approximately four years. No long-term clinical data is available for these three patients.
The youngest sibling was […] at the time of onset. […] No long-term clinical data is available for the youngest sibling.

[6] = tested on: person with progressive postural imbalance; experiment: Case study Example 22, get up and go test and cognition; type: in vivo, human
Description: Treatment with acetyl-DL-leucine (Tanganil®) was started because the patient was suffering from imbalance and gait disorder. They initiated a one-month course comprising nine 500 mg tablets taken three times a day (TID) with meals, i.e., a total daily dosage of 4.5 g.
The ability of the subject to move was measured in a home setting “get up and go test”. This test involved the subject rising unaided from their chair and walking the length of their living area to their kitchen. This was timed over seven consecutive days prior to treatment, and over the next seven consecutive days once treatment with Tanganil® had started.
The same subject then initiated another month of treatment, i.e. a further one-month course comprising nine 500 mg capsules taken TID with meals (total daily dosage of 4.5 g).

[7] = tested on: person with postural imbalance and gait disorder; experiment: Case study Example 24; type: in vivo, human
Description: The patient was treated with Tanganil® 500 mg in 3 separate doses throughout the day—1 g upon waking, 1 g prior to lunch and 1 g prior to the evening meal for one week, followed by 2 g upon waking, 1.5 g prior to lunch and 1.5 g prior to the evening meal.

[8] = tested on: person with gait problems and postural imbalance; experiment: Case study Example 25, quantitative gait analysis; type: in vivo, human
Description: The patient was then treated with Tanganil® (500 mg) in 3 separate doses throughout the day—1 g upon waking, 1 g prior to lunch and 1 g prior to the evening meal for one week, followed by 2 g upon waking, 1.5 g prior to lunch and 1.5 g prior to the evening meal.

[9] = tested on: patient with progressive gait disorder; experiment: Case study Example 26, quantitative gait analysis; type: in vivo, human
[10] = tested on: subjects with no apparent dysfunction in cognitive ability or movement/balance; experiment: Balancing ability (eyes closed, non-dominant foot lifted); type: in vivo, human
Description: Due to reported improvement in balance on treatment we measured balancing ability at the end of the treatment period and at the end of the washout period. This assessment required the subject to close their eyes and lift their non-dominant foot around 6 inches off the ground. The subject was then timed to see how long they could remain upright and without significant wobbles. This was repeated three times, and the values averaged. […] This assessment required the subject to close their eyes and lift their non-dominant foot around 6 inches off the ground. The subject was then timed to see how long they could remain upright and without significant wobbles. This was repeated three times, and the values averaged. We measured balancing ability at the end of the treatment period and at the end of the washout period. This assessment required the subject to close their eyes and lift their non-dominant foot around 6 inches off the ground. The subject was then timed to see how long they could remain upright and without significant wobbles. This was repeated three times, and the values averaged.

[11] = tested on: patients with Niemann-Pick Type C (NPC); conditions: one-month study, 12 NPC patients (Bremova 2015); cited from earlier work

For `CC(=O)NC(CC(C)C)C(=O)O` (racemic) [acetyl-DL-leucine], the “Delay of discernible disease symptoms vs untreated Npc1−/− littermates” value (Npc1−/− mice) was “two”, the “LysoTracker fluorescence vs untreated disease fibroblasts” value [1] was “statistically significant reduction in LysoTracker fluorescence toward control level” and the “LysoTracker fluorescence vs untreated disease fibroblasts” value [2] was “statistically significant reduction in LysoTracker fluorescence toward control level”. The Overall symptoms ([3]; Tay-Sachs Patient 1) was “improvement in symptoms”, the Clinical re-examination ([3]; Tay-Sachs Patient 1, after four months) was “stable condition with slightly improved cognitive function but had deterioration of stance, gait and fine motor function” and the Clinical re-examination ([3]; Tay-Sachs Patient 1, after one month, 3 g then 5 g per day) was “improved fine motor skills and reduced hand tremor”. For the same compound, the Clinical re-examination ([3]; Tay-Sachs Patient 2, after one month, 3 g then 5 g per day) was “increased enunciation, improved postural stability, and enhanced cognitive function”, the Clinical re-examination ([3]; Tay-Sachs Patient 3, after one month, 1.5 g then 3 g per day) was “increased fine motor skills” and the Clinical re-examination [4] was “stable general condition, increased gait (more fluent), and stable stance in natural position”. For the same compound, the “Fine motor skills and speech (reported by mother)” value [5] was “improved fine motor skills and improved speech at each age compared to their older siblings”, the “Cognitive function (noticed by family)” value ([6]; after 2-3 weeks of treatment) was “significant improvement in their cognitive function, spatial awareness and general demeanor” and the “Faster than pre-treatment, get up and go test” value ([6]; on treatment, 4.5 g daily) was 25%. For the same compound, the “Average time, get up and go test” value ([6]; once treatment had started, 4.5 g daily, 40±3 prior to treatment) was 30 ± 2 s, the Side effects ([6]; over eighteen months, 4.5 g per day) was “no side effects” and the “Improvements on second treatment” value ([6]; second one-month course, 4.5 g daily) was “rapidly returned”. The Tolerability ([7]; 3 g/day one week then 5 g/day) was “well tolerated”, the “Dizziness, imbalance, gait (feedback by spouse)” value ([7]; 22 days after beginning treatment) was “significant reduction of dizziness and imbalance, and significant improvement of gait” and the Tolerability ([8]; 3 g/day one week then 5 g/day) was “very well tolerated”. For the same compound, the “Gait and imbalance (patient and child report)” value ([8]; 3 weeks after beginning treatment) was “gait and imbalance was significantly improved”, the “% of the time in the gait cycle in which both feet are in contact with the ground” value ([8]; after 3 weeks' treatment) was 25.5% and the Cadence ([8]; after 3 weeks' treatment) was 100 steps/minute. For the same compound, the “Coefficient of variation (CV) of stride time” value ([8]; after 3 weeks' treatment) was 1.8, the Maximum walking speed ([8]; after 3 weeks' treatment) was 157 cm/s and the Natural walking speed ([8]; after 3 weeks' treatment) was 96 cm/s. For the same compound, the Spreading width ([8]; after 3 weeks' treatment) was 8.1 cm, the Step cycle length ([8]; after 3 weeks' treatment) was 116 cm and the “Gait (patient and spouse report)” value ([9]; 3 gram per day for two weeks) was “considerable improvement of gait”. For the same compound, the “Functioning and quality of living (spouse report)” value ([9]; Day 42, 3 gram per day restarted) was “dramatic improvement”, the Self-chosen gait velocity ([9]; Day 42, from 55 cm/sec) was 62 cm/s and the Maximal gait velocity ([9]; Day 42, from 84 cm/sec) was 130 cm/s. The “Symptoms after medication was stopped” value ([9]; in vivo) was “worsening of symptoms”, the “Time subject remained balanced” value ([10]; person one, end of the washout period) was 8 s and the “Time subject remained balanced” value ([10]; person one, last day of the treatment period) was 12 s. The “Time subject remained balanced” value ([10]; person three, end of the washout period) was 4.01 s, the “Time subject remained balanced” value ([10]; person three, last day of the treatment period) was 7.27 s and the “Time subject remained balanced” value ([10]; person two, end of the washout period) was 3.1 s. For the same compound, the “Time subject remained balanced” value ([10]; person two, last day of the treatment period) was 7.9 s and the ataxia symptoms [11] was “symptomatic improvement of ataxia”.
